Assay results taken from patent publication US20220241429A1, “Antifolate-Carrying Nanoparticles and Their Use in Medicine” (priority 2018, published 2022).

What was measured:
U87MG cells = experiment: Cytotoxic or cytostatic activity on U87MG cells; assay type: cell-based; details: Homo sapiens, U-87 MG; Incubation time 72 hours, concentration range 40 pM to 500 μM
Description: (§1) The cytotoxic or cytostatic activity of methotrexate, the linker-modified methotrexate, MTX-(EG)3-NH2 and of MTX-(EG)3-NH2-loaded gold nanoparticles (GNPs) ([MTX-(EG)3-NHC(O)-(EG)8][alpha-Gall][COOH-(EG)8]@Au) was assessed by treatment of Hep3B and U87MG cells. Incubation time was 72 hours and the concentration range was 40 pM to 500 μM. The results are expressed as IC50 and are as follows: […]

Hep3B cells = experiment: Cytotoxic or cytostatic activity on Hep3B cells; assay type: cell-based; details: Homo sapiens, Incubation time 72 hours, concentration range 40 pM to 500 μM
Description: as §1

Structure (SMILES) | IC50 (U87MG cells) [µM] | IC50 (Hep3B cells) [µM]
CN(Cc1cnc2nc(N)nc(N)c2n1)c1ccc(C(=O)N[C@@H](CCC(=O)O)C(=O)O)cc1 [MTX, Methotrexate] | 0.001 to 1 | 0.001 to 1
CN(Cc1cnc2nc(N)nc(N)c2n1)c1ccc(C(=O)NC(CCC(=O)NCCCOCCOCCOCCCN)C(=O)O)cc1 (stereo not shown) [MTX-(EG)3-NH2, 4-[(3-{2-[2-(3-aminopropoxy)ethoxy]ethoxy}propyl)carbamoyl]-2-[(4-{[(2,4-diaminopteridin-6-yl)methyl](methyl)amino}phenyl)formamido]butanoic acid] | 1 to 1000 | 0.001 to 1
